Among the data in a melting point compilation (Tetko et al.; mined from patent text by program, amines drawn as free bases though some values may be those of a salt) are melting point values, retold here.

SMILES strings stand for the structures.

On to `CS(=O)(=O)c1ccc(Oc2ccc(Cl)c(Cl)c2)nc1C#N`, for which the melting point – broadly, the temperature of the solid-liquid transition – was 168 to 170 °C.
As to `CS(=O)(=O)c1ccc(C2=C(c3ccc(F)c(F)c3)CCC2)cc1`, the melting point lay within 114 to 115 °C.
Compound `CC(=O)NC(C(=O)NCc1ccccc1)c1ncc[nH]1` (centres undefined) displayed a melting point of 228 to 230 °C.
`CC1C(C)(C)c2ccc(C#Cc3ccc(C=O)cc3)cc2C1(C)C` (centres undefined) yielded a melting point of 106 to 107 °C.
Take `CCN(c1nc(C)cc(C)n1)c1ccc(C(C)C)cc1SC`: the melting point was 64 to 66 °C.
For `O=c1cc(-c2ccoc2)c2ccc(Sc3cc(F)cc(-c4cccnc4)c3)cc2o1`, the melting point lay within 169 to 170 °C.
`CN(C)Cc1nnc2n1-c1ccc(Cl)cc1C(c1ccccc1Cl)=NC2`: the melting point fell in the range of 199 to 201 °C.
For `CCOC(=O)c1cccc2nc(CC)n(Cc3ccc(-c4ccccc4-c4nnn[nH]4)cc3)c12`, the melting point fell in the range of 188 to 189 °C.
In the case of `Cc1nc2nccc(-c3cccnc3)n2n1`, the melting point is 244 to 245 °C.
In the case of `O=C(Cc1cccc2ccccc12)N1CC=C(c2cccc(C(F)(F)F)c2)CC1` it was 137 to 140 °C; in that of `c1ccc(C[C@@H]2CN(C3=Nc4ccccc4Sc4ccccc43)CCN2)cc1`, 56 to 69 °C.
Compound `O=C(Nc1ccc(SC(F)(F)F)cc1)c1cc(S(=O)(=O)c2ccccc2)c2ccccc2c1O` came in with a melting point of 271 to 272 °C.
In the case of `CN(CCO)c1cc(Cl)nc(SCC(=O)O)n1` it was 188 to 190 °C; in that of `CN1Cc2c(C(=O)OCC3CCC3)ncn2-c2cccc(Cl)c2C1=O`, 181 to 182 °C.
As for `N#Cc1ccc(C(OCC2OC(n3ccc(=O)[nH]c3=O)CC2O)(c2ccccc2)c2ccccc2)cc1` (centres undefined), the melting point lay within 92 to 95 °C.
As for `N#Cc1ccc(Cn2cncn2)cc1-c1ccc(O)cc1`, the melting point lay within 211 to 213 °C.
The compound `N#CC1(Nc2cccc(Cl)c2)CCN(C(=O)c2cc(C(F)(F)F)cc(C(F)(F)F)c2)CC1` yielded a melting point of 205 to 207 °C.
The compound `CC1=CC(=O)C(C(=O)C=Cc2cccs2)C(=O)O1` (centres undefined) displayed a melting point of 162 to 164 °C.
`CS(=O)(=O)ON=C(Cl)c1ccc(Cl)cc1` had a melting point of 80 to 82 °C.
The compound `Cn1c(Sc2cc(C(F)(F)F)ccc2C#N)n[nH]c1=O` registered a melting point of 182 °C.
Regarding `O=C(Nc1cccc(-c2ccnc3c(C(=O)c4cccs4)cnn23)c1)c1cccnc1`, the melting point fell in the range of 191 to 194 °C.
In the case of `Cn1c(Oc2cccc(C(F)(F)F)c2)nc2c(-c3cccc(C(=O)NCCO)c3)cccc21` it was 139 to 140 °C; in that of `CS(=O)(=O)Nc1cc2occ(C(N)=O)c(=O)c2cc1Oc1ccccc1`, more than 250 °C.
As to `Cn1cc(C2CCN(CCn3cnc4ccccc4c3=O)CC2)c2ccccc21`, the melting point amounted to 78 °C.
For `CCCCCCCCOc1cc2cc(C(=O)OC)c(C(=O)OC)c(-c3ccnc(Cl)c3)c2cc1OC`, the melting point lay in the range of 93 to 97 °C.
`COc1ccc(-c2csc(N)n2)cc1OC1CC2CCC1C2` (centres undefined) had a melting point of 168 to 178 °C.
Turning to `CCCCCCCC1=CCC(c2cc(F)c(F)c(F)c2)C=C1` (centres undefined), the melting point is 14 °C.
To `O=C(O)Cc1ccc(OCCNC(=O)C2Cc3ccccc3N2S(=O)(=O)c2ccc(-c3cc(Cl)ccc3Cl)cc2)cc1` (centres undefined) belongs 80 to 86 °C; to `COc1cc2nc(N3CCN(c4ccnc(N5CCOCC5)n4)CC3)nc(N)c2cc1OC`, 232 to 233 °C.
In turn, `COc1cc(OC)cc(C(=O)N2CCc3cc(OCc4ccccc4)ccc3C2=O)c1` gave a melting point of 158 to 159 °C.
To `O=CC1=C(Cl)Nc2cc(F)c(F)cc2C1` belongs 260 °C; to `C[C@@H](NC(=O)c1c[nH]c2ncc(-c3nn(C)c4cc(Cl)ccc34)nc12)C(=O)N1CC(F)C1`, 257 to 260 °C; to `Cc1ccc2c(c1C)OC(C)(C)C2=O`, 79 to 81 °C.
As to `Cc1ccc(N2C(=O)C(O)=C(C(=O)c3ccc(C(C)C)cc3)C2c2ccc(OC(C)(C)C)cc2)nn1` (centres undefined), the melting point lay in the range of 276 to 277 °C.
As for `CNS(=O)(=O)CCc1ccc2[nH]cc(CCCN3C(=O)c4ccccc4C3=O)c2c1`, the melting point lay in the range of 169 to 170 °C.
With `CSc1nc(C)c(Cc2ccccc2)c(=O)[nH]1`, the melting point was in the range of 220 to 222 °C.
In the case of `CCC(=O)NCc1cccc2c1C(=O)N(C1CCC(=O)NC1=O)C2=O` (centres undefined) it was 219 to 221 °C; in that of `COC(=O)C1=C(C)NC(C)=C(C(=O)OCCOc2ccc(CCOC(C)=O)cc2)C1c1cccc([N+](=O)[O-])c1` (centres undefined), 110 °C.
In the case of `CC(C)(C)Nc1nc(NCc2ccccc2)c(C#N)cc1F` it was 138 to 140 °C; in that of `COc1ccc(OCC2(Cc3c(C)nc(OC)c(C(C)C)c3C(=O)c3cc(C)cc(C#N)c3)CC2)cc1`, 179 to 180 °C; in that of `O=C1OCCC1=Cc1ccccc1O`, 162 to 164 °C.
`CCCCCCn1c(=O)[nH][nH]c1=O`: the melting point fell in the range of 144 to 145 °C.
`CC1=CC2Cc3[nH]c(=O)ccc3C3(C1)NCCCC23` (centres undefined) came in with a melting point of 270 to 271 °C.
For `COc1cc(/C(C#N)=C\c2ccc(C)c(N)c2)cc(OC)c1OC`, the melting point lay within 161 to 162 °C.
In turn, `O=C(CBr)c1cc(-c2cccc(C(F)(F)F)c2)nc(C(F)(F)F)c1` showed a melting point of 87 to 89 °C.
`COC(=O)Nc1ccc(C(=O)N(C)C)c(S(N)(=O)=O)c1` had a melting point of 75 to 77 °C.
Compound `O=C(O)c1ccc(-c2nnc(-c3ccc(C(F)(F)F)cc3)o2)cc1` yielded a melting point of more than 300 °C.
Regarding `COc1cc(Cn2c(=O)n(C3CCCCC3)c3cc(Cl)ccc32)ccc1[N+](=O)[O-]`, the melting point was 176 °C.
In turn, `CC(C)C(=O)Nc1cccc(N(CCO)CCO)c1` returned a melting point of 120 to 122 °C.
In the case of `CC(C)(C)c1cc(CCC(=O)Nc2ccc(S(=O)(=O)NCCBr)cc2)cc(C(C)(C)C)c1O` it was 153 to 155 °C.
On to `CCOC(=O)c1ccc2c(O)c(C(=O)OCC)c(=O)n(C)c2n1`, for which the melting point lay in the range of 174 to 175 °C.
In the case of `C#CCSc1nnc(-c2cccs2)s1` it was 71 to 73 °C; in that of `Cc1ccc(C(=O)C2(n3ccnc3)CC2)cc1`, 88 to 90 °C; in that of `O=C(O)C1=Cc2cc(OCc3ccccc3)c(OCc3ccccc3)cc2CCC1`, 180 to 181 °C.
`NS(=O)(=O)c1cnc(-c2cn(-c3nc(-c4ccc(C(F)(F)F)cc4)cc(C(F)(F)F)n3)cn2)s1`: the melting point came to 264 °C.
Compound `CCCCCOc1ccc(-c2ncc(C#N)cn2)cc1` showed a melting point of 98 to 98.1 °C.
`Nc1nc2ccccc2n1-c1ccc(-c2ccco2)cc1` gave a melting point of 210 to 212 °C.
`COc1ccc(/C=C(\C#N)c2ccccc2OC)cc1OC1CCCC1` gave a melting point of 85 to 87.5 °C.
`OC(Cn1cncn1)(c1ccc(F)cc1F)C(F)(F)F` (centres undefined) gave a melting point of 110 to 111 °C.
To `C[C@@H]1CCCN1CCCOc1ccc(-c2ccc(=O)[nH]n2)cn1` belongs 178 to 181 °C.
`FC(F)(F)c1ccc(COc2ccnc(CCl)c2)cc1`: the melting point was in the range of 133 to 135 °C.
`CCN(CC)c1ccc(-c2cc(-c3ccc(C(=O)O)cc3)ccc2CC(O)CO)cc1C(C)(C)C` (centres undefined) displayed a melting point of 130 °C.
Turning to `COCC1CN(c2ccc3ccc(OC)cc3c2)C(=O)O1` (centres undefined), the melting point lay within 95.5 to 96.5 °C.
Compound `CC[C@@]12CCCN1[C@@H](C(Cl)(Cl)Cl)OC2=O` registered a melting point of 76 to 77 °C.
The compound `CC(c1oc2ccccc2c(=O)c1-c1cccc(F)c1)n1nc(-c2ccc3cc(O)ccc3c2)c2c(N)ncnc21` (centres undefined) registered a melting point of 281 to 285 °C.
`Cc1ccc(C2OCC(C)(CO)CO2)cc1` (centres undefined) showed a melting point of 104 to 106 °C.
Regarding `COc1cc(Nc2c(C#N)cnc3sc(-c4ccc(C=O)cc4)cc23)c(Cl)cc1Cl`, the melting point was more than 240 °C.
`c1ccc(N2CCN(c3nc4c(c(NC5CCCCC5)n3)SCC4)CC2)cc1` gave a melting point of 174 to 175 °C.
Turning to `CC(C)OC(=O)c1cc(N)c(F)c(Cl)n1`, the melting point fell in the range of 191 to 192 °C.
In the case of `Cc1ccc2c(-c3cc(C(C)(C)C)c(O)c(C(C)(C)C)c3)nn(CCO)c2n1`, the melting point lay within 183 to 185 °C.
To `CCCCCCCCCCCCCCCCc1cc(S)c(Sc2nnc(SCC(=O)O)s2)cc1O` belongs 71 to 76 °C.
The compound `CC(=O)Nc1ccc2nc(CN3CCCCC3)ccc2c1` came in with a melting point of 182 to 184 °C.
`O=C1CCCC12CCn1c(cc3ccccc31)C2` (centres undefined) returned a melting point of 128 to 130 °C.
`OCCOc1ccccc1-c1ccccc1` registered a melting point of 71 to 75 °C.
For `NCCc1ccc(OCC2CCCO2)c(S(N)(=O)=O)c1` (centres undefined), the melting point is 135 to 140 °C.
In the case of `CC(C)C[C@@H](C#N)NC(=O)[C@@H]1CCCC[C@@H]1NC(=O)c1ccc(-n2cncn2)cc1`, the melting point is 156 to 159 °C.
The compound `N#CCCSc1nnsc1-c1ccccc1` yielded a melting point of 63.5 to 64.5 °C.
`CCN(CC)C(=O)c1cccc(I)c1C(=O)O` had a melting point of 120 to 122 °C.
In the case of `Nc1c(Cl)cc(C(=O)Cl)cc1C(F)(F)F` it was 110 to 115 °C.
To `CCCCOc1ncc(C(C)=O)cc1-c1nc2c(CC)n(C3CN(C(=O)OC(C)(C)C)C3)nc2c(=O)[nH]1` belongs 176 to 178 °C.
The compound `Cc1ccc(C=C2C3=C(C=CC2(C)C)CC(C)CN3)cc1` (centres undefined) registered a melting point of 153 °C.
`CCCc1c(OCCCCCCc2cccc(OCCCCCCC(=O)O)c2CCC(=O)O)ccc2c1OCCC2=O` returned a melting point of 91 to 93 °C.
`COC(=O)CCCC(=O)c1cc2c(c(S(N)(=O)=O)c1)OCC2` gave a melting point of 135 to 136 °C.
In the case of `O=C1CCCCN1Cc1ccc(CCn2cnc3cc(-c4ccc(F)cc4)sc3c2=O)cc1` it was 216 to 217 °C.
`CC(C)(C)OC(=O)CNc1nc(NCc2ccc(NC(=O)c3ccc(F)cc3)cc2)c2ccccc2n1` returned a melting point of 96 °C.
With `CC(=O)c1ccc(Br)c(S(=O)(=O)Cl)c1`, the melting point was determined as 107 °C.
In turn, `CCOC(=O)c1cc2cc(N)ccc2[nH]1` registered a melting point of 124 to 125 °C.
Regarding `Cc1c(O)cc2c(c1Br)[C@H](O)[C@H](N1CCC(O)(c3ccc(F)cc3)CC1)CO2` (relative stereo), the melting point was 196 °C.
With `CCOc1ccc([N+](=O)[O-])c(F)c1`, the melting point was found to be 48 °C.
